Test results from ChEMBL document CHEMBL3860084, “Allyl and prenyl ethers of mansonone G, new potential semisynthetic antibacterial agents” (2016).
Converted amounts (≈) assume the structure as drawn.

How the values were obtained:
[1] = system: Cutibacterium acnes; assay: Antibacterial activity against Propionibacterium acnes KCCM 41747 at 1000 uM after 24 hrs by agar well-diffusion method; format: functional; details: KCCM 41747, 24 h, read-out: DIZ
[2] = system: Streptococcus sobrinus; assay: Antibacterial activity against Streptococcus sobrinus KCCM 11898 at 1000 uM after 24 hrs by agar well-diffusion method; format: functional; details: KCCM 11898, 24 h, read-out: DIZ
[3] = system: Staphylococcus aureus; assay: Antibacterial activity against Staphylococcus aureus ATCC 25923 at 1000 uM after 24 hrs by agar well-diffusion method; format: functional; details: ATCC 25923, 24 h, read-out: DIZ
[4] = system: Streptococcus mutans; assay: Antibacterial activity against Streptococcus mutans ATCC 25175 at 1000 uM after 24 hrs by agar well-diffusion method; format: functional; details: ATCC 25175, 24 h, read-out: DIZ
[5] = system: Salmonella typhi; assay: Antibacterial activity against Salmonella typhi ATCC 422 at 1000 uM after 24 hrs by agar well-diffusion method; format: functional, Salmonella enterica subsp. enterica serovar Typhi; details: Salmonella enterica, ATCC 422, 24 h; read-out: DIZ
[6] = system: Streptococcus sobrinus; assay: Antibacterial activity against Streptococcus sobrinus KCCM 11898 by resazurin based broth microdilution method; format: functional
[7] = system: Cutibacterium acnes; assay: Antibacterial activity against Propionibacterium acnes KCCM 41747 by resazurin based broth microdilution method; format: functional
[8] = system: Salmonella typhi; assay: Antibacterial activity against Salmonella typhi ATCC 422 by resazurin based broth microdilution method; format: functional, Salmonella enterica subsp. enterica serovar Typhi; details: Salmonella enterica
[9] = system: Streptococcus mutans; assay: Antibacterial activity against Streptococcus mutans ATCC 25175 by resazurin based broth microdilution method; format: functional
[10] = system: Staphylococcus aureus; assay: Antibacterial activity against Staphylococcus aureus ATCC 25923 by resazurin based broth microdilution method; format: functional
[11] = system: Streptococcus sobrinus; assay: Antibacterial activity against Streptococcus sobrinus KCCM 11898 at 500 uM after 24 hrs by agar well-diffusion method; format: functional; details: KCCM 11898, 24 h, read-out: DIZ
[12] = system: Staphylococcus aureus; assay: Antibacterial activity against Staphylococcus aureus ATCC 25923 at 500 uM after 24 hrs by agar well-diffusion method; format: functional; details: ATCC 25923, 24 h, read-out: DIZ
[13] = system: Salmonella typhi; assay: Antibacterial activity against Salmonella typhi ATCC 422 at 500 uM after 24 hrs by agar well-diffusion method; format: functional, Salmonella enterica subsp. enterica serovar Typhi; details: Salmonella enterica, ATCC 422, 24 h; read-out: DIZ
[14] = system: Streptococcus mutans; assay: Antibacterial activity against Streptococcus mutans ATCC 25175 at 500 uM after 24 hrs by agar well-diffusion method; format: functional; details: ATCC 25175, 24 h, read-out: DIZ
[15] = system: Cutibacterium acnes; assay: Antibacterial activity against Propionibacterium acnes KCCM 41747 at 500 uM after 24 hrs by agar well-diffusion method; format: functional; details: KCCM 41747, 24 h, read-out: DIZ

`COc1cc(C)c2c(c1C(C)C)C=C(C)C(=O)C2=O` gave a zone of inhibition at 1000 µM [1] of 13.2 mm, a zone of inhibition at 1000 µM [2] of 10.7 mm and a zone of inhibition at 1000 µM [3] of 15.3 mm. It also gave a zone of inhibition at 1000 µM [4] of 11.3 mm and a zone of inhibition at 1000 µM [5] of 10.7 mm.
`C=CCOc1cc(C)c2c(c1C(C)C)C=C(C)C(=O)C2=O` gave a zone of inhibition at 1000 µM [1] of 14.8 mm, an MIC [6] of 15.6 µM (≈ 4.44 µg/mL) and an MIC [7] of 31.2 µM (≈ 8.89 µg/mL). For the same molecule, the zone of inhibition at 1000 µM [2] was 16 mm, the zone of inhibition at 1000 µM [3] was 23 mm and the MIC [8] was 62.5 µM (≈ 17.8 µg/mL). The zone of inhibition at 1000 µM [4] was 17.3 mm, the MIC [9] was 31.2 µM (≈ 8.89 µg/mL) and the zone of inhibition at 1000 µM [5] was 14.5 mm. For the same molecule, the MIC [10] was 0.975 µM (≈ 0.277 µg/mL).
Work on `CCCCCCCC(=O)Oc1cc(C)c2c(c1C(C)C)C=C(C)C(=O)C2=O` yielded a zone of inhibition at 1000 µM [1] of 11.5 mm, a zone of inhibition at 1000 µM [2] of 11.3 mm and a zone of inhibition at 1000 µM [3] of 8.7 mm. The zone of inhibition at 1000 µM [4] was 10.3 mm and the zone of inhibition at 1000 µM [5] was 9.6 mm.
`CC1=C2OCC(C)c3c(O)cc(C)c(c32)C(=O)C1=O` (stereo not given) was tested, and the zone of inhibition at 1000 µM [1] was 11.9 mm, the MIC [6] was 62.5 µM (≈ 16.1 µg/mL) and the MIC [7] was 125 µM (≈ 32.3 µg/mL). For the same molecule, the zone of inhibition at 1000 µM [2] was 8.3 mm, the zone of inhibition at 1000 µM [3] was 12 mm and the MIC [8] was 31.2 µM (≈ 8.07 µg/mL). For the same molecule, the zone of inhibition at 1000 µM [4] was 10.3 mm, the MIC [9] was 62.5 µM (≈ 16.1 µg/mL) and the zone of inhibition at 1000 µM [5] was 11 mm. The MIC [10] was 250 µM (≈ 64.6 µg/mL).
`CCCC(=O)Oc1cc(C)c2c(c1C(C)C)C=C(C)C(=O)C2=O` gave a zone of inhibition at 1000 µM [1] of 13 mm, a zone of inhibition at 1000 µM [2] of 13.7 mm and a zone of inhibition at 1000 µM [3] of 18 mm. For the same molecule, the zone of inhibition at 1000 µM [4] was 12.7 mm, the zone of inhibition at 1000 µM [5] was 10.7 mm and the MIC [10] was 62.5 µM (≈ 19.6 µg/mL).
`CCOc1cc(C)c2c(c1C(C)C)C=C(C)C(=O)C2=O` showed a zone of inhibition at 1000 µM [1] of 13.3 mm, an MIC [6] of 31.2 µM (≈ 8.51 µg/mL) and an MIC [7] of 62.5 µM (≈ 17 µg/mL). The zone of inhibition at 1000 µM [2] was 14 mm, the zone of inhibition at 1000 µM [3] was 16 mm and the zone of inhibition at 1000 µM [4] was 18 mm. For the same molecule, the MIC [9] was 62.5 µM (≈ 17 µg/mL) and the zone of inhibition at 1000 µM [5] was 10.8 mm.
In the case of `CC(C)=CCOc1cc(C)c2c(c1C(C)C)C=C(C)C(=O)C2=O`, the zone of inhibition at 1000 µM [1] is reported as 15 mm, the MIC [6] is reported as 31.2 µM (≈ 9.76 µg/mL) and the MIC [7] is reported as 31.2 µM (≈ 9.76 µg/mL). It also gave a zone of inhibition at 1000 µM [2] of 16.7 mm, a zone of inhibition at 1000 µM [3] of 23.7 mm and an MIC [8] of 62.5 µM (≈ 19.5 µg/mL). For the same molecule, the zone of inhibition at 1000 µM [4] was 17.7 mm, the MIC [9] was 31.2 µM (≈ 9.76 µg/mL) and the zone of inhibition at 1000 µM [5] was 16.3 mm. It also gave an MIC [10] of 0.975 µM (≈ 0.305 µg/mL).
`CCCCCCCCOc1cc(C)c2c(c1C(C)C)C=C(C)C(=O)C2=O` gave a zone of inhibition at 1000 µM [1] of 14.6 mm, an MIC [6] of 31.2 µM (≈ 11.1 µg/mL) and an MIC [7] of 31.2 µM (≈ 11.1 µg/mL). It also gave a zone of inhibition at 1000 µM [2] of 15.7 mm, a zone of inhibition at 1000 µM [3] of 20 mm and an MIC [8] of 31.2 µM (≈ 11.1 µg/mL). The zone of inhibition at 1000 µM [4] was 20 mm, the MIC [9] was 31.2 µM (≈ 11.1 µg/mL) and the zone of inhibition at 1000 µM [5] was 16.3 mm. It also gave an MIC [10] of 15.6 µM (≈ 5.56 µg/mL).
Work on `CCCCCCCCCCCCOc1cc(C)c2c(c1C(C)C)C=C(C)C(=O)C2=O` yielded a zone of inhibition at 1000 µM [1] of 11.9 mm, a zone of inhibition at 1000 µM [2] of 8 mm and a zone of inhibition at 1000 µM [3] of 9 mm. The zone of inhibition at 1000 µM [4] was 9 mm and the zone of inhibition at 1000 µM [5] was 11.5 mm.
With `CCCCCCCCCC(=O)Oc1cc(C)c2c(c1C(C)C)C=C(C)C(=O)C2=O` the zone of inhibition at 1000 µM [1] was 11.4 mm, the zone of inhibition at 1000 µM [2] was 10.7 mm and the zone of inhibition at 1000 µM [3] was 7 mm. The zone of inhibition at 1000 µM [4] was 9.7 mm and the zone of inhibition at 1000 µM [5] was 8.2 mm.
In the case of `CCCCCC(=O)Oc1cc(C)c2c(c1C(C)C)C=C(C)C(=O)C2=O`, the zone of inhibition at 1000 µM [1] is reported as 11.6 mm, the zone of inhibition at 1000 µM [2] is reported as 12.7 mm and the zone of inhibition at 1000 µM [3] is reported as 14.7 mm. It also gave a zone of inhibition at 1000 µM [4] of 12 mm and a zone of inhibition at 1000 µM [5] of 9.7 mm.
With `CC(C)=CCC/C(C)=C/COc1cc(C)c2c(c1C(C)C)C=C(C)C(=O)C2=O` the zone of inhibition at 1000 µM [1] was 11.1 mm, the zone of inhibition at 1000 µM [2] was 11.5 mm and the zone of inhibition at 1000 µM [3] was 14 mm. The MIC [8] was 125 µM (≈ 47.6 µg/mL), the zone of inhibition at 1000 µM [4] was 16.2 mm and the zone of inhibition at 1000 µM [5] was 14 mm.
With `CCCCOc1cc(C)c2c(c1C(C)C)C=C(C)C(=O)C2=O` the zone of inhibition at 1000 µM [1] was 13.6 mm, the MIC [6] was 125 µM (≈ 37.5 µg/mL) and the MIC [7] was 15.6 µM (≈ 4.69 µg/mL). The zone of inhibition at 1000 µM [2] was 15.5 mm, the zone of inhibition at 1000 µM [3] was 18 mm and the MIC [8] was 3.9 µM (≈ 1.17 µg/mL). For the same molecule, the zone of inhibition at 1000 µM [4] was 18.3 mm, the MIC [9] was 7.8 µM (≈ 2.34 µg/mL) and the zone of inhibition at 1000 µM [5] was 12 mm. The MIC [10] was 15.6 µM (≈ 4.69 µg/mL).
In the case of `CC1=Cc2c(C(C)C)ccc(C)c2C(=O)C1=O`, the zone of inhibition at 1000 µM [1] is reported as 13.3 mm, the MIC [6] is reported as 31.2 µM (≈ 7.13 µg/mL) and the MIC [7] is reported as 62.5 µM (≈ 14.3 µg/mL). It also gave a zone of inhibition at 1000 µM [2] of 9.3 mm, a zone of inhibition at 1000 µM [3] of 12.7 mm and an MIC [8] of 31.2 µM (≈ 7.13 µg/mL). It also gave a zone of inhibition at 1000 µM [4] of 13.7 mm, an MIC [9] of 15.6 µM (≈ 3.56 µg/mL) and a zone of inhibition at 1000 µM [5] of 11.3 mm. The MIC [10] was 62.5 µM (≈ 14.3 µg/mL).
Molecule `O=C(N[C@H](CO)[C@H](O)c1ccc([N+](=O)[O-])cc1)C(Cl)Cl` [CHLORAMPHENICOL] has a zone of inhibition at 500 µM [11] of 25.3 mm, a zone of inhibition at 500 µM [12] of 20.7 mm and a zone of inhibition at 500 µM [13] of 24.8 mm. For the same molecule, the zone of inhibition at 500 µM [14] was 25.7 mm and the zone of inhibition at 500 µM [15] was 30 mm.
Work on `CC1=C2OCC(C)c3ccc(C)c(c32)C(=O)C1=O` (stereo not given) [MANSONONE E] yielded a zone of inhibition at 1000 µM [1] of 13.5 mm, an MIC [6] of 15.6 µM (≈ 3.78 µg/mL) and an MIC [7] of 31.2 µM (≈ 7.57 µg/mL). For the same molecule, the zone of inhibition at 1000 µM [2] was 16.7 mm, the zone of inhibition at 1000 µM [3] was 19.7 mm and the MIC [8] was 15.6 µM (≈ 3.78 µg/mL). For the same molecule, the zone of inhibition at 1000 µM [4] was 20.3 mm, the MIC [9] was 3.9 µM (≈ 0.945 µg/mL) and the zone of inhibition at 1000 µM [5] was 11.6 mm. It also gave an MIC [10] of 31.2 µM (≈ 7.57 µg/mL).
In the case of `CC1=Cc2c(c(C)cc(O)c2C(C)C)C(=O)C1=O` [MANSONONE G], the zone of inhibition at 1000 µM [1] is reported as 15.6 mm, the MIC [6] is reported as 31.2 µM (≈ 7.63 µg/mL) and the MIC [7] is reported as 31.2 µM (≈ 7.63 µg/mL). It also gave a zone of inhibition at 1000 µM [2] of 10 mm, a zone of inhibition at 1000 µM [3] of 13.7 mm and an MIC [8] of 15.6 µM (≈ 3.81 µg/mL). The zone of inhibition at 1000 µM [4] was 14.7 mm, the MIC [9] was 31.2 µM (≈ 7.63 µg/mL) and the zone of inhibition at 1000 µM [5] was 11.9 mm. The MIC [10] was 62.5 µM (≈ 15.3 µg/mL).
